The source made the active and inactive calls. No rule for the calls is given here.
Biological target: UPR counterscreen luciferase reporter, luminescence
Test: activators in UPR counterscreen luciferase reporter, dose response, counter-screen for adaptive UPR activator project, cell-based, luminescence (AID 489027)

Question: `COC(=O)c1c(NC(=O)c2nc3ccccc3s2)sc2c1CC(C)(C)NC2(C)C` was tested. Which EC50 did it give?
Answer: > 80 µM (inactive)

Question: For `CCOC(=O)c1c(NC(=O)c2cc(C)on2)c2cc([N+](=O)[O-])ccc2n1C`, which EC50 is on record?
Answer: > 80 µM (inactive)

Question: How did the EC50 turn out when `CCOC(=O)C1=C(C)N=c2s/c(=C3/C(=O)Nc4ccccc43)c(=O)n2C1c1ccc(C)cc1` (stereo unspecified) was run?
Answer: > 80 µM (inactive)

Question: For `O=C(CSCc1ccc(Cl)cc1)Nc1ccc(-c2nnc(-c3ccccc3)o2)cc1`, which EC50 is on record?
Answer: > 80 µM (inactive)

Question: Which EC50 does the source give for `Cc1ccc(Nc2nc3ccc(Cl)cc3n3cnnc23)cc1F` here?
Answer: inactive

Question: For `CN(C)c1ccc(/C=N/NC(=O)c2ccc(NC(=O)c3ccccc3)cc2)cc1`, which EC50 is on record?
Answer: inactive

Question: With `CC(C)(C)C(=O)NC(=S)NNC(=O)C(c1ccccc1)c1ccccc1` as the molecule, how does the EC50 read?
Answer: 2.14 µM

Question: How did the EC50 turn out when `CCCCCCCCCCn1c2c(c(=N)c3c1CCC3)CCC2` was run?
Answer: 13.5 µM

Question: Which EC50 does the source give for `Cc1ccc(-c2cc(C(F)F)n3ncc(C(=O)N4CCc5ccccc54)c3n2)cc1` here?
Answer: > 80 µM (inactive)

Question: How did the EC50 turn out when `c1ccc(N=Nc2ccc3cccccc2-3)cc1` was run?
Answer: 11 µM

Question: For `O=C(C[C@H]1C[C@H](C(=O)N2CCCCC2)[C@@]2(CCc3ccccc3)c3[nH]c4ccc(Cl)cc4c3CCN2C1=O)NCCC1=CCCCC1`, which EC50 is on record?
Answer: inactive

Question: `COc1ccc(Cc2nnc(N/N=C/c3ccc(N(C)C)cc3)[nH]c2=O)cc1OC` was tested. Which EC50 did it give?
Answer: > 80 µM (inactive)

Question: With `CCOC(=O)C1=C(O)/C(=C/c2cn(CC(=O)NCC3CCCO3)c3ccccc23)SC1=Nc1ccc(C)cc1` (stereo unspecified) as the molecule, how does the EC50 read?
Answer: > 80 µM (inactive)

Question: How did the EC50 turn out when `Cc1ccc(NC(=O)COc2ccc(/C=C3/SC(=Nc4ccccc4)N(Cc4cccnc4)C3=O)cc2)cc1` was run?
Answer: 19.6 µM

Question: Which EC50 does the source give for `CCCCCn1c(N)c(-c2nc3ccccc3o2)c2c([N+](=O)[O-])nn(CC)c(=O)c21` here?
Answer: inactive

Question: How did the EC50 turn out when `O=C(c1ccc2c(c1)[nH]c(=S)n1c3ccccc3nc21)N1CCN(c2cccc(Cl)c2)CC1` was run?
Answer: 16.4 µM

Question: How did the EC50 turn out when `COc1cc(/C=N/Nc2nc(Nc3ccccc3)nc(-n3nc(C)cc3C)n2)cc(OC)c1OC` was run?
Answer: > 80 µM (inactive)

Question: `OCCNc1nc(Nc2ccc(Br)cc2)nc2ccccc12` was tested. Which EC50 did it give?
Answer: 5.82 µM

Question: With `CCc1nn(-c2cc(Oc3cccc4ccccc34)nc(-c3ccccc3)n2)c(N)c1C#N` as the molecule, how does the EC50 read?
Answer: > 80 µM (inactive)

Question: How did the EC50 turn out when `Cn1nc(C(F)(F)F)c(/C=N/OC(=O)c2ccccc2)c1SCc1ccc(Cl)cc1` was run?
Answer: inactive

Question: For `O=C(/C=C/c1ccc(Cl)cc1)NC(=S)Nc1ccc(N2CCOCC2)c(Cl)c1`, which EC50 is on record?
Answer: > 80 µM (inactive)

Question: For `C/C(CC(C)(C)C1CCCCC1)=N\NC(N)=S`, which EC50 is on record?
Answer: 12.1 µM

Question: Which EC50 does the source give for `CN(C)CC/C=C1\c2ccc(F)cc2Sc2cc(F)c(Cl)cc21` here?
Answer: > 80 µM (inactive)

Question: How did the EC50 turn out when `Cc1cccc(Nc2nc3c(S(=O)(=O)c4ccccc4)nnn3c3ccccc23)c1C` was run?
Answer: 12.3 µM

Question: With `Cc1cc(C)c2c(c1)/C(=N/Nc1ccc(S(N)(=O)=O)cc1[N+](=O)[O-])CCC2` as the molecule, how does the EC50 read?
Answer: > 80 µM (inactive)

Question: Which EC50 does the source give for `CCOc1cc(/C=C2/C(=N)N3C=CSC3=NC2=O)ccc1OCCCOc1ccccc1C` here?
Answer: 17.7 µM

Question: With `Cc1ccc2c(c1)C(=O)C(=O)N2Cc1ccc(Br)cc1` as the molecule, how does the EC50 read?
Answer: inactive

Question: Which EC50 does the source give for `COc1cc(-c2noc(C)c2/C=C/c2ccc(OC(C)=O)cc2)cc(OC)c1OC` here?
Answer: > 80 µM (inactive)

Question: Which EC50 does the source give for `COc1ccc(OCc2n(CC(=O)OC3CC(C)CCC3C(C)C)c3ccccc3[n+]2C)cc1` (stereo unspecified) here?
Answer: > 80 µM (inactive)

Question: `CCC(=O)Nc1ccc(NC(=O)CSc2nc3cc4c(cc3cc2C)CCC4)cc1` was tested. Which EC50 did it give?
Answer: > 80 µM (inactive)

Question: With `COc1ccc(-c2c(-c3cc(OC)cc(OC)c3)n(C)c3ccc(-c4cnc(N)nc4)cc23)cc1` as the molecule, how does the EC50 read?
Answer: > 80 µM (inactive)

Question: For `O=C(Nc1nc2ccccc2s1)c1cc2c(s1)-c1ccccc1OC2`, which EC50 is on record?
Answer: inactive

Question: For `Cc1ccc(F)cc1N=Cc1c(O)c2ccccc2oc1=O`, which EC50 is on record?
Answer: 9.06 µM

Question: For `O=C(CSc1nc2ccc(Nc3nc(N4CCOCC4)nc(N4CCOCC4)n3)cc2s1)Nc1ccccc1F`, which EC50 is on record?
Answer: > 80 µM (inactive)

Question: Which EC50 does the source give for `O=C(/C=C1\NC2(CCCC2)Cc2ccccc21)C(=O)N/N=C/c1ccc(O)c(O)c1` here?
Answer: 10.4 µM

Question: How did the EC50 turn out when `N#Cc1ccc(N/N=C/c2cn(-c3ccccc3)nc2-c2ccccc2)c([N+](=O)[O-])c1` was run?
Answer: inactive

Question: `O=C(/C=C/c1cc([N+](=O)[O-])ccc1OC(F)F)Nc1cccc([N+](=O)[O-])c1` was tested. Which EC50 did it give?
Answer: > 80 µM (inactive)

Question: For `Fc1ccc(Nc2nc(NCc3ccco3)c3ccccc3n2)cc1`, which EC50 is on record?
Answer: > 80 µM (inactive)

Question: For `N#CCC(=O)N/N=C/c1cn(Cc2cccc3ccccc23)c2ccccc12`, which EC50 is on record?
Answer: > 80 µM (inactive)

Question: `COc1ccc(C2CC(c3c(-c4ccccc4)c4cc(Cl)ccc4[nH]c3=O)=NN2S(C)(=O)=O)cc1` (stereo unspecified) was tested. Which EC50 did it give?
Answer: > 80 µM (inactive)

Question: For `O=C(NCCCn1ccnc1)c1nn2c(C(F)(F)F)cc(-c3ccc(Br)cc3)nc2c1Cl`, which EC50 is on record?
Answer: > 80 µM (inactive)

Question: How did the EC50 turn out when `CCC(Sc1nnc2c3ccccc3n(CC)c2n1)C(=O)Nc1sc2c(c1C#N)CCCC2` (stereo unspecified) was run?
Answer: inactive

Question: Which EC50 does the source give for `Cc1nn(Cc2c(Cl)cccc2Cl)c(C)c1NC(=O)c1sc2ccccc2c1Cl` here?
Answer: 18.5 µM

Question: `Cc1nc2ccccc2n1-c1nc(-c2ccco2)cc(C(F)(F)F)n1` was tested. Which EC50 did it give?
Answer: 11.1 µM

Question: How did the EC50 turn out when `COCc1cc(C)nc(OCC(=O)N/N=C/c2ccc(-c3cc([N+](=O)[O-])ccc3Cl)o2)c1C#N` was run?
Answer: 13.6 µM

Question: For `O=C(Nc1ccc([N+](=O)[O-])cc1)c1nc[nH]c1C(=O)NC1CCCCC1`, which EC50 is on record?
Answer: > 80 µM (inactive)

— PubChem BioAssay AID489027 (Sanford-Burnham Center for Chemical Genomics, 2010)
